Assay [1] has as its target T1, ZEITLUPE LOV domain (ZTL 29-165, ZTL-S) (Arabidopsis thaliana, UniProt Q94BT6).
T1 construct: gene ADO1; LOV domain, residues 29-165, E. coli, 6xHis or GST tag cleaved by TEV; monomer 16 kDa, homodimer 33 kDa (MALS)
In words: X-ray crystal structure. The format is binding. Conditions: dark state, 2.5 Å; FMN non-covalently bound next to C82.

Assay [2] deals with T2, ZEITLUPE LOV domain (ZTL 29-165, ZTL-S) (Arabidopsis thaliana, UniProt Q94BT6, V48I/G80R).
T2 construct: gene ADO1; LOV domain, residues 29-165, E. coli, 6xHis or GST tag cleaved by TEV; monomer 16 kDa, homodimer 33 kDa (MALS)
Briefly: X-ray crystal structure. Conditions: dark state (5SVV, 2.1 Å) non-covalent; light state (5SVW, 2.3 Å) covalent C4a adduct with C82. In kind it is binding.

T1 sequence (Q94BT6 29-165): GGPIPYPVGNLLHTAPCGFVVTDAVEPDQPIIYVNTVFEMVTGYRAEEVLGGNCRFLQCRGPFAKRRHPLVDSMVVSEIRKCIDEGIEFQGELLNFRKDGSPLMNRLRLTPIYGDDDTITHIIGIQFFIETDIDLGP
T2 sequence (Q94BT6 29-165 V48I/G80R): as the sequence (Q94BT6 29-165) above, with V20I, G52R counted along it

Consider `Cc1cc2nc3c(=O)[nH]c(=O)nc-3n(C[C@H](O)[C@H](O)[C@H](O)COP(=O)(O)O)c2cc1C` [FMN], for which the values for the X-ray crystal structure entry in assay [1] and in assay [2] were “The helices cradle the photoreactive FMN adjacent to C82 (Eα helix)” and “Light state crystal structure of V48I:G80R”, respectively.

These data come from paper PMC5370183, “Kinetics of the LOV domain of ZEITLUPE determine its circadian function in Arabidopsis” (eLife, 2017).
